# Columns and labels:
# [1] = system: cultured human mast cells (CHMC); assay: CHMC low cell density IgE activation: tryptase assay; type: cell-based; conditions: IgE activation
# How it was run: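 Tryptase release was read from supernatant with a fluorogenic substrate (30 min, room temperature) after anti-IgE challenge of cultured human mast cells (1000–1500 cells/well, low density) for 30 minutes at 37° C.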
# [2] = system: cultured human mast cells (CHMC); assay: CHMC low cell density ionomycin activation: tryptase assay; type: cell-based; conditions: 3 pt, read-out: LD Tryptase, CHMC, Iono, 3 pt
# [3] = Homo sapiens, Mast cell, low cell density CHMC, tryptase, 3 pt, read-out: LD Tryptase, CHMC, IgE, 3 pt
# [4] = Homo sapiens, Mast cell, low cell density CHMC, tryptase
# [5] = Homo sapiens, Mast cell, low cell density CHMC, tryptase, 8 pt, read-out: LD Tryptase, CHMC, IgE, 8 pt
# [6] = low cell density CHMC, tryptase, 3 pt, read-out: LD Tryptase, CHMC, IgE, 3 pt
# [7] = low cell density CHMC, tryptase
# [8] = low cell density CHMC, tryptase, 8 pt, read-out: LD Tryptase, CHMC, IgE, 8 pt
Compound,"IC50 [1, 3] [µM]","IC50 [2, 4] [µM]","IC50 [1, 5] [µM]","IC50 [1, 6] [µM]","IC50 [2, 7] [µM]","IC50 [1, 8] [µM]",further results
"CCOC(=O)N1CCN(c2cccc(Nc3ncc(F)c(N[C@H]4CCN(Cc5ccccc5)C4)n3)c2)CC1 [Compound 1187, (S)-N4-(1-Benzylpyrrolidin-3-yl)-N2-[3-(4-ethoxycarbonylpiperazino)phenyl]-5-fluoro-2,4-pyrimidinediamine]",< 10,> 10,–,–,–,–,–
CC1(C)Oc2ccc(Nc3nc(Nc4cccc(-c5ncco5)c4)ncc3F)cc2NC1=O [Compound 1281],< 10,> 10,< 10,–,–,–,–
C[C@@H]1Oc2ccc(Nc3nc(Nc4cccc(-c5ncco5)c4)ncc3F)cc2NC1=O [Compound 1282],< 10,> 10,< 10,–,–,–,–
C[C@H]1Oc2ccc(Nc3nc(Nc4cccc(-c5ncco5)c4)ncc3F)cc2NC1=O [Compound 1283],< 10,> 10,< 10,–,–,–,–
O=C1Nc2cc(Nc3nc(Nc4cccc(-c5ncco5)c4)ncc3F)ccc2OC1(F)F [Compound 1284],< 10,> 10,< 10,–,–,–,–
NC1CCOc2ccc(Nc3nc(Nc4cccc(-c5ncco5)c4)ncc3F)cc21 (stereo not drawn) [Compound 1285],< 10,> 10,< 10,–,–,–,–
"CC(C)(C)OC(=O)NC1CCOc2ccc(Nc3nc(Nc4cccc(-c5cnco5)c4)ncc3F)cc21 (stereo not drawn) [Compound 1287, N4-(4-N-tert-Butoxycarbonylamino-3,4-dihydro-2H-1-benzopyran-6-yl)-5-fluoro-N2-[3-(oxazol-5-yl)phenyl]-2,4-pyrimidinediamine]",–,–,–,< 10,> 10,–,–
"CC(C)(C)OC(=O)NC1CCOc2ccc(Nc3nc(Nc4ccc(-c5cnco5)cc4)ncc3F)cc21 (stereo not drawn) [Compound 1288, N4-(4-N-tert-Butoxycarbonylamino-3,4-dihydro-2H-1-benzopyran-6-yl)-5-fluoro-N2-[4-(oxazol-5-yl)phenyl]-2,4-pyrimidinediamine]",–,–,–,< 10,< 10,< 10,–
"CC(C)(C)OC(=O)NC1CCOc2ccc(Nc3nc(Nc4ccc(-c5ncco5)cc4)ncc3F)cc21 (stereo not drawn) [Compound 1289, N4-(4-N-tert-Butoxycarbonylamino-3,4-dihydro-2H-1-benzopyran-6-yl)-5-fluoro-N2-[4-(oxazol-2-yl)phenyl]-2,4-pyrimidinediamine]",–,–,–,< 10,< 10,–,–
"OC1CCOc2ccc(Nc3nc(Nc4ccc(-c5ncco5)cc4)ncc3F)cc21 (stereo not drawn) [Compound 1291, 5-Fluoro-N4-(4-hydroxy-3,4-dihydro-2H-1-benzopyran-6-yl)-N2-[4-(oxazol-2-yl)phenyl]-2,4-pyrimidinediamine]",< 10,> 10,< 10,–,–,–,–
"CNC(=O)CNC(=O)c1ccc(Nc2ncc(F)c(Nc3ccc4c(c3)NC(=O)C(C)(C)O4)n2)cc1 [Compound 1295, N4-(2,2-Dimethyl-3-oxo-4H-benz[1,4]oxazin-6-yl)-5-fluoro-N2-[4-[N-(N-methylamino)carbonylmethylene]aminocarbonylphenyl]-2,4-pyrimidinediamine]",–,–,–,< 10,> 10,< 10,–
"CNC(=O)CNC(=O)c1ccc(Nc2ncc(F)c(Nc3ccc4c(c3)NC(=O)[C@H](C)O4)n2)cc1 [Compound 1296, (S)-5-Fluoro-N2-[4-[N-(N-methylamino)carbonylmethylene]aminocarbonylphenyl]-N4-(2-methyl-3-oxo-2H,4H-benz[1,4]oxazin-6-yl)-2,4-pyrimidinediamine]",–,–,–,< 10,> 10,< 10,–
"CNC(=O)CNC(=O)c1ccc(Nc2ncc(F)c(Nc3ccc(Cl)c(Cl)c3)n2)cc1 [Compound 1300, N4-(3,4-Dichlorophenyl)-5-fluoro-N2-[4-[N-(N-methylamino)carbonylmethylene]aminocarbonylphenyl]-2,4-pyrimidinediamine]",–,–,–,< 10,> 10,< 10,–
"CNC(=O)CNC(=O)c1ccc(Nc2ncc(F)c(N(C)c3ccc(Cl)c(Cl)c3)n2)cc1 [Compound 1301, N4-(3,4-Dichlorophenyl)-5-fluoro-N4-methyl-N2-[4-[N-(N-methylamino)carbonylmethylene]aminocarbonylphenyl]-2,4-pyrimidinediamine]",–,–,–,< 10,> 10,< 10,–
"COC(=O)CCNC(=O)c1ccc(Nc2ncc(F)c(Nc3ccc4c(c3)NC(=O)C(C)(C)O4)n2)cc1 [Compound 1302, N4-(2,2-Dimethyl-3-oxo-4H-benz[1,4]oxazin-6-yl)-5-fluoro-N2-[4-[N-(2-methoxycarbonylethyl)aminocarbonyl]phenyl]-2,4-pyrimidinediamine]",< 10,< 10,< 10,–,–,–,–
"COC(=O)CCNC(=O)c1ccc(Nc2ncc(F)c(Nc3ccc4c(c3)NC(=O)[C@H](C)O4)n2)cc1 [Compound 1303, (S)-5-Fluoro-N2-[4-[N-(2-methoxycarbonylethyl)aminocarbonyl]phenyl]-N4-(2-methyl-3-oxo-2H,4H-benz[1,4]oxazin-6-yl)-2,4-pyrimidinediamine]",< 10,> 10,< 10,–,–,–,–
COC(=O)CCNC(=O)c1ccc(Nc2ncc(F)c(Nc3ccc4c(c3)NC(=O)C(F)(F)O4)n2)cc1 [Compound 1304],< 10,> 10,< 10,–,–,–,–
COC(=O)CCNC(=O)c1ccc(Nc2ncc(F)c(Nc3ccc(Cl)c(Cl)c3)n2)cc1 [Compound 1305],< 10,< 10,< 10,–,–,–,–
COC(=O)CCNC(=O)c1ccc(Nc2ncc(F)c(N(C)c3ccc(Cl)c(Cl)c3)n2)cc1 [Compound 1306],< 10,> 10,< 10,–,–,–,–
"CC(C)(C)OC(=O)NCC(=O)NCc1ccc(Nc2ncc(F)c(Nc3ccc4c(c3)NC(=O)C(C)(C)O4)n2)cc1 [Compound 1307, N2-[4-[1-(tert-Butoxycarbonylamino)methylenecarbonylamino]methylphenyl]-N4-(2,2-dimethyl-3-oxo-4H-benz[1,4]oxazin-6-yl)-5-fluoro-2,4-pyrimidinediamine]",–,–,–,< 10,< 10,< 10,–
"C[C@@H]1Oc2ccc(Nc3nc(Nc4ccc(CNC(=O)CNC(=O)OC(C)(C)C)cc4)ncc3F)cc2NC1=O [Compound 1308, (S)-N2-[4-[1-(tert-Butoxycarbonylamino)methylenecarbonylamino]methylphenyl]-5-fluoro-N4-(2-methyl-3-oxo-2H,4H-benz[1,4]oxazin-6-yl)-2,4-pyrimidinediamine]",–,–,–,< 10,< 10,< 10,–
"CC(C)(C)OC(=O)NCC(=O)NCc1ccc(Nc2ncc(F)c(Nc3ccc4c(c3)NC(=O)C(F)(F)O4)n2)cc1 [Compound 1309, N2-[4-[1-(tert-Butoxycarbonylamino)methylenecarbonylamino]methylphenyl]-N4-(2,2-difluoro-3-oxo-4H-benz[1,4]oxazin-6-yl)-5-fluoro-2,4-pyrimidinediamine]",–,–,–,< 10,> 10,< 10,–
"CC(C)(C)OC(=O)NCC(=O)NCc1ccc(Nc2ncc(F)c(Nc3ccc(Cl)c(Cl)c3)n2)cc1 [Compound 1310, N2-[4-[1-(tert-Butoxycarbonylamino)methylenecarbonylamino]methylphenyl]-N4-(3,4-dichlorophenyl)-5-fluoro-2,4-pyrimidinediamine]",–,–,–,< 10,< 10,< 10,–
"(R)-5-Fluoro-N2-[4- (N-methoxycarbonylmethyleneamino)carbonylphenyl]-N4- (2-methyl-3-oxo-2H,4H-benz[1,4]oxazin-6-yl)-2,4-pyrimidinediamine [Compound 1272]",–,–,–,–,> 10,< 10,–
"(S)-5-Fluoro-N2-[4- (N-methoxycarbonylmethyleneamino)carbonylphenyl]-N4- (2-methyl-3-oxo-2H,4H-benz[1,4]oxazin-6-yl)-2,4-pyrimidinediamine [Compound 1271]",–,–,–,–,> 10,< 10,–
"N2- (3-Chloro-4-methoxyphenyl)-N4- (2,2-dimethyl-3-oxo-4H-benz[1,4]oxazin-6-yl)-5-fluoro-N4-methyl-2,4-pyrimidinediamine [Compound 394]",–,–,–,< 10,< 10,–,–
"N2- (Bis-2-hydroxyethyl)-N4- (3,4-ethylenedioxyphenyl)-5-fluoro-N4-methyl-2,4-pyrimidinediamine [Compound 492]",–,–,–,–,–,–,"IC50 ([1]; low cell density, 3 pt, read-out: LD Tryptase, CHMC, IgE, 3 pt): > 10 µM; IC50 ([2]; low cell density): > 10 µM"
"N2-[4-[1- (tert-Butoxycarbonylamino)methylenecarbonylamino]methylphenyl]-N4- (3,4-dichlorophenyl)-5-fluoro-N4-methyl-2,4-pyrimidinediamine [Compound 1311]",–,–,–,< 10,> 10,–,–
"N4- (2,2-Difluoro-3-oxo-4H-benz[1,4]oxazin-6-yl)-5-fluoro-N2-[4-[N- (N-methylamino)carbonylmethylene]aminocarbonylphenyl]-2,4-pyrimidinediamine [Compound 1297]",–,–,–,< 10,> 10,–,–
"N4- (2,2-Dimethyl-3-oxo-4H-benz[1,4]oxazin-6-yl)-5-fluoro-N2-(1-methylindazol-6-yl)-2,4-pyrimidinediamine p-Hydroxybenzenesulfonic Acid Salt [Compound 768]",–,–,–,< 10,> 10,< 10,–

# Reference: patent US20220073536A1 (Rigel Pharmaceuticals, Inc., priority 2003, published 2022)
